Experimental data reported in patent publication US20030027218A1, “PEPTIDES PROMOTING THE ACTIVATION OF LATENT TGF-BETA AND METHOD FOR SCREENING TGF-BETA ACTIVITY REGULATORS” (priority 1997, published 2003).
Positions of bridges follow the written chain, without caps; N, C: chain ends. *: point of attachment. Biotin = O=C1N[C@H]2[C@H](CS[C@H]2CCCCC(=O)*)N1

Assays:
[1] = tested on: bovine capillary endothelial cells (BCEC); experiment: Degree of binding of 125I-LLTGF-β to bovine capillary endothelial cells (radioactivity); type: cell-based; conditions: for Radioactivity (cpm), n = 4: BCEC, 2 ng/ml 125I-LLTGF-β, 4° C. 3 hours
Protocol: LLTGF-β isolated and purified from human platelets by the method of Okada, et al. [Journal of Biochemistry, 106, 304 (1989)] was ^125I-labeled according to the chloramine T method [Molecular & Cellular Biology, 2, 599 (1982)] in the following manner.
To 2 μg of LLTGF-β were added 25 μl of 1 M K-phosphate buffer (pH 7.5), 37 MBq of Na-^125I (DuPont NEN) and 10 μl of chloramine-T (0.5 mg/100 μl in 0.05 MK-phos. buffer, Wako Pure Chemical Industries, Ltd.), followed by stirring at room temperature for 40 seconds. After 15 μl of Na2S2O5 (1 mg/100 μl in 0.05 M K-phos. buffer) was added, the mixture was stirred at room temperature for 5 seconds, followed by addition of 100 μl of an aqueous solution of tyrosine (1 mg/ml). The reaction mixture was applied to a Sephadex G25 column and the eluate was taken in 500 μl fractions. Each fraction was subjected to measurement of radioactivity using a γ-counter (ARC-2000, Aloka Co., Ltd.). The fractions containing labeled protein were selected for use in the experiment.
The cells to be used in the experiment were obtained according to the method of Sato, et al. [Journal of Cell Biology, 123, 1249 (1993)]. Bovine vascular smooth muscle cells (BSMC) and porcine vascular smooth muscle cells (PSMC) were isolated from bovine aorta and porcine aorta, respectively, and cultured by the explant method [Journal of Cell Biology, 50, 172 (1971)]. Bovine capillary endothelial cells (BCEC) were isolated from bovine adrenal capillary and cultured. Bovine aortic endothelial cells (BAEC) were isolated from bovine aortic and cultured.
The following procedure was carried out according to the method of Sato, et al. [Journal of Cell Biology, 123, 1249 (1993)].
BSMC, PSMC and BCEC isolated and cultured in the above-described manner were respectively put into 35 mm dishes in an amount of 4×10^4 cells/dish. On the next day, the medium was replaced by Dulbecco's Modified Eagle's Medium (DMEM, Nissui Pharmaceutical Co.) containing 0.1% bovine serum albumin (BSA), followed by incubation for 5 hours. After the cells were washed with 2 ml of phosphate-buffered saline containing 0.1 g/l each of MgCl2.6H2O and CaCl2 [hereinafter sometimes referred to as PBS(+); phosphate-buffered saline containing neither MgCl2.6H2O nor CaCl2 is referred to as PBS (−)], the medium was replaced by 1 ml of ice-cold DMEM containing 0.1% BSA, 2 ng/ml ^125I-LLTGF-β and a test compound, followed by incubation at 4° C. for 3 hours. […] After being washed three times with 2 ml of ice-cold PBS(+), the cells were lysed with 900 μl of 0.5% Triton X-100 (room temperature, 0.5-1 hour), and 800 μl of the lysate was subjected to measurement of radioactivity using a γ-counter.

[2] = tested on: bovine capillary endothelial cells (BCEC); experiment: Migration of bovine vascular endothelial cells (release of active TGF-β from latent TGF-β); type: cell-based; conditions: 24 hours, 10 /μg/ml
Protocol: The following procedure was carried out according to the method of Sato, et al. [Journal of Cell Biology, 123, 1249 (1993)]. were scraped with a razor, the remaining cells were washed with PBS (−), followed by incubation in DMEM containing 0.1% BSA and a test compound. After 24 hours, the number of the cells which migrated in four fileds of a microscope (IX70, Olympus) was counted for each dish. The test compound was added in the same manner as in Test Example 1. The migration of cells was inhibited and the release of active TGF-β from latent TGF-β was promoted by Compounds 3 and 5 to 9 at a concentration of 50 μg/ml.

[3] = tested on: active TGF-β; experiment: Determination of active TGF-β by luciferase assay (BCEC culture supernatant on MLEC carrying PAI-1 promoter luciferase); type: cell-based, bovine; conditions: BCEC incubated with test compound 24 hours
Protocol: The amount of active TGF-β was determined by measuring the luminescence of mink lung epithelial cells (MLEC) carrying the luciferase gene introduced downstream of the PAI-1 promoter by luciferase assay system (Promega) according to the method of Abe, et al. [Analytical Biochemistry, 216, 276 (1994)] as described below.
BCEC were cultured in a 24-well plate to make a confluent layer and then the medium was replaced by DMEM containing 0.1% BSA. After 6 hours, the cells were scraped reticulately with a comb and the remaining cells were washed with PBS (−) , followed by incubation in DMEM containing 0.1% BSA and a test compound for 24 hours. The resulting culture supernatant was taken as a sample. Six hours before the sampling of this culture supernatant, the above-mentioned MLEC were put into wells of a 96-well plate in an amount of 2.8×10^4 cells/well. After the cells were cultured in DMEM containing 10% fetal calf serum (FCS) for 6 hours, the medium was replaced by the above culture supernatant sample, followed by incubation for 16 hours. The cells were washed twice with PBS (−) and then subjected to measurement of active TGF-β concentration by lucuferase assay system.

[4] = tested on: bovine aortic endothelial cells (BAEC); experiment: Degree of binding of 125I-LLTGF-β to bovine aortic endothelial cells (radioactivity); type: cell-based; conditions: test compound 100 μg/ml
[5] = test compound 100 μg/ml, vehicle 416.8 ± 89.6
[6] = concentrations indicated in FIG. 6

**Q.** “H-Leu-Lys-Leu-Lys-Val-Glu-Gln-His-Val-Glu-Leu-Tyr-Gln-Lys-Tyr-Ser-Asn-Asn-Ser-Trp-Arg-OH (H-LKLKVEQHVELYQKYSNNSWR-OH) [Compound 15]” was tested. Which “Radioactivity (cpm), n = 4” value [1, 5] did it give?
**A.** 5621.1 ± 889.2 cpm

**Q.** How did the migration inhibitory effect [2] turn out when “H-cyclo(Cys-Leu-Ser-Thr-Ser-Lys-Thr-Ile-Asp-Met-Glu-Leu-Val-Lys-Arg-Lys-Arg-Ile-Glu-Ala-Ile-Arg-Gly-Cys)-OH (H-CLSTSKTIDMELVKRKRIEAIRGC-OH; disulfide 1-24; SMILES CC[C@H](C)[C@@H]1NC(=O)[C@H](C)NC(=O)[C@H](CCC(=O)O)NC(=O)[C@H]([C@@H](C)CC)NC(=O)[C@H](CCCNC(=N)N)NC(=O)[C@H](CCCCN)NC(=O)[C@H](CCCNC(=N)N)NC(=O)[C@H](CCCCN)NC(=O)[C@H](C(C)C)NC(=O)[C@H](CC(C)C)NC(=O)[C@H](CCC(=O)O)NC(=O)[C@H](CCSC)NC(=O)[C@H](CC(=O)O)NC(=O)[C@H]([C@@H](C)CC)NC(=O)[C@H]([C@@H](C)O)NC(=O)[C@H](CCCCN)NC(=O)[C@H](CO)NC(=O)[C@H]([C@@H](C)O)NC(=O)[C@H](CO)NC(=O)[C@H](CC(C)C)NC(=O)[C@@H](N)CSSC[C@@H](C(=O)O)NC(=O)CNC(=O)[C@H](CCCNC(=N)N)NC1=O) [Compound 10]” was run?
**A.** showed the migration inhibitory effect

**Q.** What about the “release of active TGF-β (luciferase assay)” value (“release of active TGF-β” for short) ([3]; concentration of 10 μg/ml) of the same substance?
**A.** remarkable effect

**Q.** And the “release of active TGF-β” value [3, 6]?
**A.** Active TGF-β was released

**Q.** How did the “Radioactivity (cpm), n = 4” value ([4]; Table 5, vehicle 1076.5 ± 12.0) turn out when “Biotinyl-cyclo(Cys-Val-Leu-Leu-Ser-Arg-Ala-Glu-Leu-Arg-Leu-Leu-Arg-Arg-Leu-Lys-Leu-Lys-Cys)-OH (Biotin-CVLLSRAELRLLRRLKLKC-OH; disulfide 1-19; SMILES CC(C)C[C@@H]1NC(=O)[C@H](CCC(=O)O)NC(=O)[C@H](C)NC(=O)[C@H](CCCNC(=N)N)NC(=O)[C@H](CO)NC(=O)[C@H](CC(C)C)NC(=O)[C@H](CC(C)C)NC(=O)[C@H](C(C)C)NC(=O)[C@@H](NC(=O)CCCC[C@@H]2SC[C@@H]3NC(=O)N[C@@H]32)CSSC[C@@H](C(=O)O)NC(=O)[C@H](CCCCN)NC(=O)[C@H](CC(C)C)NC(=O)[C@H](CCCCN)NC(=O)[C@H](CC(C)C)NC(=O)[C@H](CCCNC(=N)N)NC(=O)[C@H](CCCNC(=N)N)NC(=O)[C@H](CC(C)C)NC(=O)[C@H](CC(C)C)NC(=O)[C@H](CCCNC(=N)N)NC1=O) [Compound 13]” was run?
**A.** 4704.0 ± 939.9 cpm

**Q.** With “H-Leu-Ser-Thr-Cys-Lys-Thr-Ile-Asp-Met-Glu-Leu-Val-Lys-Arg-Lys-Arg-OH (H-LSTCKTIDMELVKRKR-OH) [Compound 14]” as the substance, how does the “Radioactivity (cpm), n = 4” value [1, 5] read?
**A.** 3369.9 ± 166.8 cpm

**Q.** “Biotinyl-Gly-Arg-Arg-Leu-Lys-Leu-Lys-Val-Glu-Gln-His-Val-Glu-Leu-Tyr-Gln-Lys-Tyr-Ser-Asn-Asn-Ser-Trp-Arg-OH (Biotin-GRRLKLKVEQHVELYQKYSNNSWR-OH; SMILES CC(C)C[C@H](NC(=O)[C@H](CCCNC(=N)N)NC(=O)[C@H](CCCNC(=N)N)NC(=O)CNC(=O)CCCC[C@@H]1SC[C@@H]2NC(=O)N[C@@H]21)C(=O)N[C@@H](CCCCN)C(=O)N[C@@H](CC(C)C)C(=O)N[C@@H](CCCCN)C(=O)N[C@H](C(=O)N[C@@H](CCC(=O)O)C(=O)N[C@@H](CCC(N)=O)C(=O)N[C@@H](Cc1c[nH]cn1)C(=O)N[C@H](C(=O)N[C@@H](CCC(=O)O)C(=O)N[C@@H](CC(C)C)C(=O)N[C@@H](Cc1ccc(O)cc1)C(=O)N[C@@H](CCC(N)=O)C(=O)N[C@@H](CCCCN)C(=O)N[C@@H](Cc1ccc(O)cc1)C(=O)N[C@@H](CO)C(=O)N[C@@H](CC(N)=O)C(=O)N[C@@H](CC(N)=O)C(=O)N[C@@H](CO)C(=O)N[C@@H](Cc1c[nH]c2ccccc12)C(=O)N[C@@H](CCCNC(=N)N)C(=O)O)C(C)C)C(C)C) [Compound 16]” was tested. Which “Radioactivity (cpm), n = 4” value ([4]; Table 6, vehicle 792.0 ± 107.0) did it give?
**A.** 10495.0 ± 803.0 cpm

**Q.** For “H-cyclo(Cys-Val-Leu-Leu-Ser-Arg-Ala-Glu-Leu-Arg-Leu-Leu-Arg-Arg-Leu-Lys-Leu-Lys-Cys)-OH (H-CVLLSRAELRLLRRLKLKC-OH; disulfide 1-19; SMILES CC(C)C[C@@H]1NC(=O)[C@H](CCC(=O)O)NC(=O)[C@H](C)NC(=O)[C@H](CCCNC(=N)N)NC(=O)[C@H](CO)NC(=O)[C@H](CC(C)C)NC(=O)[C@H](CC(C)C)NC(=O)[C@H](C(C)C)NC(=O)[C@@H](N)CSSC[C@@H](C(=O)O)NC(=O)[C@H](CCCCN)NC(=O)[C@H](CC(C)C)NC(=O)[C@H](CCCCN)NC(=O)[C@H](CC(C)C)NC(=O)[C@H](CCCNC(=N)N)NC(=O)[C@H](CCCNC(=N)N)NC(=O)[C@H](CC(C)C)NC(=O)[C@H](CC(C)C)NC(=O)[C@H](CCCNC(=N)N)NC1=O) [Compound 12]”, which “Radioactivity (cpm), n = 4” value ([1]; test compound 30 μg/ml, vehicle 163.1 ± 28.3) is on record?
**A.** 2739.9 ± 182.8 cpm

**Q.** What about the “degree of binding of TGF-β to cells” value ([1]; concentration of 30 μg/ml, BCEC (Table 3)) of the same substance?
**A.** increased

**Q.** How did the “release of active TGF-β” value [3, 6] turn out when “H-Leu-Ser-Thr-Ser-Lys-Thr-Ile-Asp-Met-Glu-Leu-Val-Lys-Arg-Lys-Arg-Ile-Glu-Ala-Ile-Arg-Gly-Cys-OH (H-LSTSKTIDMELVKRKRIEAIRGC-OH) [Compound 3]” was run?
**A.** Active TGF-β was released
